Peptide text beside a SMILES is read from it. * marks the point of attachment. 5FAM = O=C1OC2(c3ccc(O)cc3Oc3cc(O)ccc32)c2ccc(C(=O)*)cc21
What was measured:
TauRD fibrils [1] = molecular target: T1, TauRD fibrils (Homo sapiens, UniProt P10636, DEL597-597); assay: Monolith (MST / spectral shift) binding to TauRD fibrils; conditions: based on monomer concentration; 50 nM FibrilPaint1, TauRD fibrils 0.5 nM to 10 µM, pH 7.5, 37 °C; N = 3
T1 construct: We used Tau Repeat Domain (Q244-E372, TauRD) with the proaggregation mutation ΔK280; made in house; host or cells: E. coli BL21 Rosetta 2
Experimental: (§1) We confirmed that FibrilPaint1 binds specifically TauRD fibrils and not monomers by assessing binding affinity with monolith spectral shift analysis (Fig. 1 D and E). […] Since many monomers are needed to form one fibril, true affinity lies higher.
(§2) FibrilPaint1 (50 nM) was titrated with TauRD monomer or fibrils (0.5 nM to 10 µM) at 37 °C (Monolith NT.115); binding was extracted from the 5 s MST response.
(§3) Aragonès Pedrola, Dekker, et al. August 2025 FibrilPaint
(§4) FibrilRuler Test: Size measurement with Flow Induced Dispersion […]
(§5) Flow Induced Dispersion Analysis (FIDA) was used to determine fibril size. The FIDA experiments were performed using a FIDA1 with a 480 nm excitation source. […]
(§6) Data points were analysed using FIDAbio software, version 2.7. […]
(§7) Binding between FibrilPaint1 and TauRD monomers and fibrils was analyzed using Monolith (NanoTemper Technologies) Microscale thermophoresis system (MST). Thermophoresis was monitored at a concentration of 50 nM of FibrilPaint1 and a dilution series of the sample of interest, in 25 mM HEPES-KOH pH 7.5, 75 mM KCl, 75 mM NaCl. […]
(§8) Using equation 1, where L is the length and R the radius of the analysed particle, the mean length of the fibrils as function of Rh can be calculated.
(§9) As a model, PHF Fibril layers were stacked on top of each other using PyMOL software. […] Resulting structures were analysed for their Rh using FIDAbio hydrodynamic radii predictor.

TauRD monomers = molecular target: T2, TauRD monomers (Homo sapiens, UniProt P10636, DEL597-597); assay: Monolith (MST / spectral shift) binding to TauRD monomers; conditions: 50 nM FibrilPaint1, 37 °C, N = 3, unit inferred
T2 construct: We used Tau Repeat Domain (Q244-E372, TauRD) with the proaggregation mutation ΔK280; made in house; host or cells: E. coli BL21 Rosetta 2
T2 sequence (P10636 with tags, fused parts or gaps isoform P10636-8 DEL280-280): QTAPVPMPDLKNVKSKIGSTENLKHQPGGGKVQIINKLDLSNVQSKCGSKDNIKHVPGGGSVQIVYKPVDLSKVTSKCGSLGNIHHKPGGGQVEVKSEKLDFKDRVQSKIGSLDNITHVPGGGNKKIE
Experimental: as §1, §2, §3, §4, §5, §6, §7, §8, §9

[2] = tested on: TauRD (Tau Repeat Domain Q244-E372, ΔK280); assay: ThT assay of TauRD aggregation with titrated FibrilPaint peptides (ThT inhibition); type: biochemical, human; conditions: for ThT end-plateau / emitted ThT signal: 20 μM TauRD, 5 µM heparin, 45 µM ThT, peptide 2, 0.2, 0.02 µM, pH 7.4, 37 °C, triplicates, N = 3; for Tht inhibition: Yes/No, Suppl. Table S1
Description: We used Tau Repeat Domain (Q244-E372, TauRD) with the proaggregation mutation ΔK280 as a model for screening our FibrilPaint compounds. We performed a Thioflavin T (ThT) assay. ThT is an amyloid dye and provides a semiqualitative method used for the identification of amyloid structures in vitro and histology staining ([32], [33], [38]). A ThT assay is an established method to monitor protein fibrils formation, in which the fluorescent dye ThT emits fluorescence upon binding to fibrils ([38]). We identified 45 µM ThT as optimal concentration to study the kinetics of TauRD aggregation (SI Appendix, Fig. S1), in line with the literature ([39]).
Twenty µM TauRD + 5 µM heparin were incubated ± 45 µM ThT in 25 mM HEPES-KOH pH 7.4, 75 mM KCl/NaCl (37 °C). ThT fluorescence (440/485 nm) was recorded every 5 min for 24 h on a CLARIOstar® Plus; peptides were added as indicated. […]
Peptide synthesis and purification
The peptides were synthesized using a Liberty Blue Microwave-Assisted Peptide Synthesizer (CEM) with standard Fmoc chemistry and Oxyma/DIC as coupling reagents. The peptide concentrations were measured by UV spectroscopy. The peptides were labeled with 5(6)-carboxyfluorescein at their N’ termini. The peptides were cleaved from the resin with a mixture of 95% (v/v) trifluoroacetic acid (TFA), 2.5% (v/v) triisopropylsilane (TIS), 2.5% (v/v) triple distilled water (TDW) agitating vigorously for 3 hours at room temperature. The volume was decreased by N2 flux and the peptides precipitated by addition of 4 volumes of diethylether at -20 °C. The peptides were sedimented at -20 °C for 30 minutes, then centrifuged and the diethylether discarded. The peptides were washed three times with diethylether and dried by gentle N2 flux. The solid was dissolved in 1:2 volume ratio of acetonitrile (ACN):TDW, frozen in liquid Nitrogen and lyophilized.
The peptides were purified on a WATERS HPLC using a reverse-phase C18 preparative column with a gradient of ACN/TDW. The identity and purity of the peptides was verified by ESI mass spectrometry and Merck Hitachi analytical HPLC using a reverse-phase C8 analytical column.
Aggregation of 20 µM TauRD in 25 mM HEPES-KOH pH 7.4, 75 mM KCl, 75 mM
NaCl, ½ tablet/50 ml Protease Inhibitor, was induced by the addition 5 µM of heparin low molecular weight Impact of FibrilPaint peptides was assessed by adding 0.02, 0.2 or 2 µM of peptide.
Monitoring TauRD aggregation by thioflavin T (ThT) fluorescence
For monitoring the aggregation of TauRD by fluorescence, ThT was added to the aggregation mixture before addition of heparin. We used 45 µM ThT as standard condition, unless stated otherwise. […]. […]

TauRD fibrils [3] = molecular target: T1, TauRD fibrils; assay: FIDA (FibrilRuler Test): binding to TauRD fibrils; conditions: detection of Tau amyloid fibrils with FIDA; Yes/No; Suppl. Table S1
Description: (§10) Next, we screened the four FibrilPaint peptides for direct binding to TauRD fibrils. We developed an application of FIDA to determine the size of amyloid aggregates, called the FibrilRuler Test (Fig. 1B). FIDA is a recently established technique to measure size of protein complexes ([40], [41]). In FIDA, the detector records the fluorescence signal after passage of the sample through a long capillary. The sample passes a detector window, resulting in a size-dependent diffusion profile of the fluorescent compound. Smaller species diffuse faster and bigger ones slower, resulting in a narrow or broad dispersion of the fluorescent signal (Fig. 1B). Since FIDA readout relies on the physical diffusion properties of the sample, we can measure the hydrodynamic radius (Rh) of labeled species from the fluorescent signal ([42]–[44]). The Rh is a parameter corresponding to the size and shape of a molecule or a complex in solution. It is the radius of the sphere created by the tumbling particle. Rh values can be estimated from the structural coordinates, either by experimental methods or by predictions such as AlphaFold (SI Appendix, Table S2). For known structures, e.g., for many protein fibrils, an experimentally determined Rh value allows us to estimate the dimensions of the particle.
(§11) With this setup, we determined the Rh of FibrilPaint1 to 4 to be 1.7 nm each (SI Appendix, Table S1). The binding of the fluorescently labeled FibrilPaint peptide to protein fibrils increases the Rh value, as the peptide now tumbles together with the larger fibril (Fig. 1B). To measure the Rh of fibril complexes, we incubated preformed fibrils together with each of the four peptides in a 1:100 peptide:monomer ratio, using 200 nM peptide with fibrils made of 20 μM TauRD monomers.
(§12) Preformed or patient-derived fibrils (2 µM monomer) were mixed with 50 nM Fl-FibrilPaint1 and analyzed in capillary dissociation mode (25 °C, FIDA 1). […]
as §6
Target sequence in this assay (P10636 with tags, fused parts or gaps isoform P10636-8 DEL280-280): as above

[4] = FIDA: Rh of peptide alone (unbound); type: physicochemical; conditions: peptide not bound to anything
Description: as §10, §11, §12, §6

Amyloid-β (Aβ) plaques = conditions: in words; cited from earlier work
Description: The formation of amyloid fibrils is one of the earliest pathological hallmarks of neurodegenerative diseases ([3], [6], [12]–[15]). […] In AD, Aβ aggregation outside the cell precedes Tau aggregation inside the cell ([4], [13], [18]).

| Molecule | Kd (TauRD fibrils [1]) [µM] | Kd (TauRD monomers) [µM] | ThT end-plateau / emitted ThT signal [2] | Tht inhibition [2] | Fibril binding (TauRD fibrils [3]) | Hydrodynamic radius (Rh) [4] [nm] | clinical effect (Amyloid-β (Aβ) plaques) | risks (Amyloid-β (Aβ) plaques) |
| --- | --- | --- | --- | --- | --- | --- | --- | --- |
| CC(C)[C@H](NC(=O)[C@H](CCC(=O)O)NC(=O)[C@H](CCC(=O)O)NC(=O)[C@H](CO)NC(=O)CNC(=O)[C@H](CO)NC(=O)CNC(=O)[C@H](Cc1c[nH]cn1)NC(=O)[C@@H]1CCCN1C(=O)[C@H](Cc1c[nH]cn1)NC(=O)[C@H](Cc1c[nH]cn1)NC(=O)[C@H](Cc1c[nH]c2ccccc12)NC(=O)[C@@H]1CCCN1C(=O)[C@H](Cc1c[nH]c2ccccc12)NC(=O)[C@H](Cc1c[nH]c2ccccc12)NC(=O)[C@@H]1CCCN1C(=O)[C@H](CCCNC(=N)N)NC(=O)[C@H](CCCNC(=N)N)NC(=O)[C@H](Cc1c[nH]c2ccccc12)NC(=O)[C@H](Cc1c[nH]c2ccccc12)NC(=O)[C@@H]1CCCN1C(=O)c1ccc2c(c1)C(=O)OC21c2ccc(O)cc2Oc2cc(O)ccc21)C(=O)N[C@@H](CC(=O)O)C(=O)O [FibrilPaint1] (5FAM-PWWRRPWWPWHHPHGSGSEEVD-OH) | 1.6 | > 10 |  |  |  |  |  |  |
| (Fl)-PWIRRPWWPWTTPTGSGSEEVD [FibrilPaint2, 22-residue fluorescein-labeled peptide] |  |  | lower the end-plateau in a dose-dependent manner | Yes | No | 1.7 |  |  |
| (Fl)-PWWDDPWWPWHHPHGSGSEEVD [FibrilPaint4, 22-residue fluorescein-labeled peptide] |  |  | lower the end-plateau in a dose-dependent manner | Yes | No | 1.7 |  |  |
| (Fl)-PWWDDPWWPWTTPTGSGSEEVD [FibrilPaint3, 22-residue fluorescein-labeled peptide] |  |  | lower the end-plateau in a dose-dependent manner | Yes | No | 1.7 |  |  |
| Lecanemab: antibody approved to target Amyloid-β (Aβ) plaques (antibody, chains of the INN, looked up, V domains shown) VH: EVQLVESGGGLVQPGGSLRLSCSASGFTFSSFGMHWVRQAPGKGLEWVAYISSGSSTIYYGDTVKGRFTISRDNAKNSLFLQMSSLRAEDTAVYYCAREGGYYYGRSYYTMDYWGQGTTVTVSS VL: DVVMTQSPLSLPVTPGAPASISCRSSQSIVHSNGNTYLEWYLQKPGQSPKLLIYKVSNRFSGVPDRFSGSGSGTDFTLRISRVEAEDVGIYYCFQGSHVPPTFGPGTKLEIK |  |  |  |  |  |  | modest | significant risks involved |

— article PMC12595476, “FibrilPaint to determine the length of Tau amyloids in fluids” (Proceedings of the National Academy of Sciences of the …, 2025)
